Test results as given in US9131689B2, “Use of a 1-N-(halo-3-pyridylmethyl)-N-methylamino-1-alkylamino-2-nitroethylene derivative for preparing a topical veterinary pharmaceutical composition for combating external parasites” (priority 2007, dated 2015).
Like-named read-outs stand apart in the source and are kept apart here.

How the values were obtained:
Format in all cases: in vivo
Ctenocephalides felis [1] = test: Rapidity of action of topical compositions against flea infestation in cats (Example 1)
Description: In this example, a comparative study of the efficacy of nitenpyram (rapidity of action) administered topically, alone or in combination with fipronil, compared with fipronil administered alone, against cat fleas, was carried out.
It is a randomized, blind, controlled efficacy study carried out in parallel on 4 groups of six cats, according to the recommendations of the guidelines of the Committee for Veterinary Medicinal Products (CVMP): “Guidelines for the testing and evaluation of the efficacy of antiparasitic substances for the treatment and prevention of tick and flea infestations in dogs and cats”, EMEA/CVMP/005/00-FINAL-Rev.1.
The cats used in this study were male or female, adult domestic cats more than 6 months old, of mixed breeds, but mainly of short-hair European breed, weighing between 2 and 5 kg. […]
6 days before the beginning of the study (D=−6), all the cats were infested with approximately 100 laboratory fleas, strain Ctenocephalides felis, of male or female gender. The fleas were then counted on the day before the treatment (D=−1) and then at different times after application of the treatment (1, 4, 12 and 24 hours after treatment).
To do this, all the fleas present on an animal are harvested by combing the cat and then counting after combing. The number of live fleas is thus determined. […]

Ctenocephalides felis [2] = test: Supplementary study of efficacy over time after weekly flea re-infestation of cats (Example 3)
Description: In this example, a comparative study of the efficacy, over time, of nitenpyram administered topically, alone or in combination with fipronil, compared with fipronil administered alone, against cat fleas, was carried out. It is the continuation of the study of example 1 using compositions A, B and C.
At a regular interval after the first administration (D=0), all the cats were infested with approximately 100 laboratory fleas, strain Ctenocephalides felis, of male or female gender. The re-infestations were thus carried out at D=7, D=14, D=21, D=28, D=35, D=42, D=49, D=56 and D=63. The fleas were then counted various times after application of the treatment (at 2, 4 and 12 hours after re-infestation at D=7, D=14, D=21 and D=28; at 4, 8 and 12 hours after re-infestation at D=35 and D=42; at 12, 24 and 48 hours after re-infestation at D=49; at 24 and 48 hours after re-infestation at D=56 and, finally, at 48 hours after re-infestation at D=63).
To do this, all the fleas present on an animal were harvested by combing the cat, and then counted after combing. The number of live fleas is thus determined. After each count, the live fleas are put back on the cat. […]

[3] = Comparative pharmacokinetics of nitenpyram administered orally and topically to cats (Example 4); settings: for Tmax: read-out: Tmax: time at which the maximum concentration of nitenpyram in the plasma is observed; for AUC: read-out: AUCtot: area under the curve of the nitenpyram concentration over time determined between t0 and the final measurement; for half-life: read-out: Thalf: half-life time (converted); for Cmax: read-out: Cmax: maximum amount of nitenpyram in the plasma
Description: In this example, a comparative study of the pharmacokinetics of nitenpyram administered topically and orally to cats was carried out.
The cats used in this study were prepared under the same conditions as those described in example 1.
It was verified, beforehand, that no trace of nitenpyram was detected in the plasma of the cats.
Ten young adult cats weighing between 2 and 6 kg are divided up into two groups: • a first group of 5 cats (female) received a single topical administration on the back between the shoulder blades at the beginning of the study; the topical composition is a solution containing 10% of nitenpyram (100 mg of nitenpyram per ml) and the amount administered is 0.5 ml per cat. • a second group (4 females and one male) received a single oral administration of the commercial product Capstar® given at the beginning of the study. The Capstar® product is a tablet comprising 11.4 mg of nitenpyram.
Blood samples were taken regularly, and centrifuged at 3000 rpm for 10 minutes at 4° C., the pellet is removed and the plasma is recovered for analysis.
The plasma concentration of nitenpyram is determined by the UPLC-MS/MS (Ultra-Performance Liquid Chromatography coupled to tandem mass spectrometry) method on an Acquity BEH C18 column and a Waters Quattro Premier XE mass […].

[4] = both sexes, in vivo, oral administration, Capstar tablet 11.4 mg nitenpyram
[5] = female, plasma, topical or ocular, 50 mg per cat, topical administration, 10% solution 0.5 ml per cat

## CCN(Cc1ccc(Cl)nc1)/C(=C/[N+](=O)[O-])NC [nitenpyram, (E)-N-(6-chloro-3-pyridylmethyl)-N-ethyl-N′-methyl-2-nitrovinylidenediamine]
Ctenocephalides felis [1]
  effect of topical administration on cat fleas: lethal effect on the cat fleas
Ctenocephalides felis [2]
  effect of topical administration on cat fleas: rapid and sustained lethal effect on cat fleas
[3]; both sexes, cat, in vivo, oral administration, Capstar tablet 11.4 mg nitenpyram
  Tmax: 1.3 h
[3]; [4]
  AUC: 76800 ng·h/mL
  half-life: 9.8 h
[3]; both sexes, in vivo, po, 11.4 mg, oral administration, Capstar tablet 11.4 mg nitenpyram
  Cmax: > 5800 ng/mL
[3]; female, in vivo, topical or ocular, 50 mg per cat, topical administration, 10% solution 0.5 ml per cat
  AUC: 86400 ng·h/mL
[3]; [5]
  Cmax: 1290 ng/mL
  half-life: 69.1 h
  Tmax: 15 h
[3]; oral, Capstar tablet
  tolerance of oral administration: well tolerated
[3]; topical vs oral
  half-life time administered topically relative to orally: more than 7 times
[3]; topical, 10% solution 0.5 ml per cat
  tolerance of topical administration: well tolerated locally
